Results reported in ChEMBL document CHEMBL3297661, “1-Substituted-5-[(3,5-dinitrobenzyl)sulfanyl]-1H-tetrazoles and their isosteric analogs: A new class of selective antitubercular agents active against drug-susceptible and multidrug-resistant mycobacteria” (Eur J Med Chem, 2014).
Converted amounts (≈) assume the structure as drawn.

What was measured:
[1] = tested on: Mycobacterium kansasii; assay: Antimycobacterial activity against Mycobacterium kansasii 6509/96 after 14 days by micromethod; assay type: functional; conditions: 6509/96, 336 h
[2] = tested on: HeLa; assay: Cytotoxicity against human HeLa cells assessed as reduction in cell viability after 48 hrs by MTT assay; assay type: cell-based
[3] = Cytotoxicity against MDCK2 cells assessed as cell viability at 30 uM after 48 hrs by MTT assay; assay type: cell-based, Canis lupus familiaris, MDCK-II; conditions: dog, read-out: Activity
[4] = tested on: Mycobacterium kansasii; assay: Antimycobacterial activity against Mycobacterium kansasii CNCTC My 235/80 after 14 days by micromethod; assay type: functional; conditions: CNCTC My 235/80, 336 h
[5] = tested on: Mycobacterium kansasii; assay: Antimycobacterial activity against Mycobacterium kansasii 6509/96 after 7 days by micromethod; assay type: functional; conditions: 6509/96, 168 h
[6] = tested on: Mycobacterium kansasii; assay: Antimycobacterial activity against Mycobacterium kansasii 6509/96 after 21 days by micromethod; assay type: functional; conditions: 6509/96, 504 h
[7] = tested on: Klebsiella pneumoniae; assay: Antibacterial activity against extended spectrum beta-lactamase producing Klebsiella pneumoniae J 14368/08 after 48 hrs by broth microdilution method; assay type: functional; conditions: J 14368/08, 48 h
[8] = tested on: Staphylococcus aureus; assay: Antibacterial activity against Staphylococcus aureus ATCC 6538 after 24 hrs by broth microdilution method; assay type: functional; conditions: ATCC 6538, 24 h
[9] = tested on: Enterococcus faecalis; assay: Antibacterial activity against Enterococcus faecalis J 14365/08 after 24 hrs by broth microdilution method; assay type: functional; conditions: J 14365/08, 24 h
[10] = Cytotoxicity against MDCK2 cells assessed as reduction in cell viability after 48 hrs by MTT assay; assay type: cell-based; conditions: Canis lupus familiaris, MDCK-II
[11] = tested on: Staphylococcus epidermidis; assay: Antibacterial activity against Staphylococcus epidermidis H 6966/08 after 24 hrs by broth microdilution method; assay type: functional; conditions: H 6966/08, 24 h
[12] = tested on: Mycobacterium avium; assay: Antimycobacterial activity against Mycobacterium avium CNCTC My 330/88 after 21 days by micromethod; assay type: functional; conditions: CNCTC My 330/88, 504 h
[13] = tested on: Lichtheimia corymbifera; assay: Antifungal activity against Absidia corymbifera 272 after 48 hrs by broth microdilution method; assay type: functional, organism-based; conditions: Lichtheimia corymbifera, 272, 48 h
[14] = tested on: Staphylococcus aureus; assay: Antibacterial activity against methicillin-resistant Staphylococcus aureus H 5996/08 after 24 hrs by broth microdilution method; assay type: functional; conditions: H 5996/08, 24 h
[15] = tested on: Pichia kudriavzevii; assay: Antifungal activity against Candida krusei E28 after 48 hrs by broth microdilution method; assay type: functional; conditions: E28, 48 h
[16] = tested on: Mycobacterium kansasii; assay: Antimycobacterial activity against Mycobacterium kansasii CNCTC My 235/80 after 7 days by micromethod; assay type: functional; conditions: CNCTC My 235/80, 168 h
[17] = tested on: Trichophyton mentagrophytes; assay: Antifungal activity against Trichophyton mentagrophytes 445 after 120 hrs by broth microdilution method; assay type: functional, organism-based; conditions: Trichophyton mentagrophytes, 445, 120 h
[18] = tested on: Pseudomonas aeruginosa; assay: Antibacterial activity against Pseudomonas aeruginosa ATCC 9027 after 48 hrs by broth microdilution method; assay type: functional; conditions: ATCC 9027, 48 h
[19] = tested on: Escherichia coli; assay: Antibacterial activity against Escherichia coli ATCC 8739 after 48 hrs by broth microdilution method; assay type: functional; conditions: ATCC 8739, ATCC 8739, 48 h
[20] = tested on: Staphylococcus aureus; assay: Antibacterial activity against methicillin-resistant Staphylococcus aureus H 5996/08 after 48 hrs by broth microdilution method; assay type: functional; conditions: H 5996/08, 48 h
[21] = tested on: Nakaseomyces glabratus; assay: Antifungal activity against Candida glabrata 20/I after 48 hrs by broth microdilution method; assay type: functional
[22] = tested on: Staphylococcus aureus; assay: Antibacterial activity against Staphylococcus aureus ATCC 6538 after 48 hrs by broth microdilution method; assay type: functional; conditions: ATCC 6538, 48 h
[23] = tested on: Aspergillus fumigatus; assay: Antifungal activity against Aspergillus fumigatus 231 after 24 hrs by broth microdilution method; assay type: functional, organism-based; conditions: Aspergillus fumigatus, 231, 24 h
[24] = tested on: Lichtheimia corymbifera; assay: Antifungal activity against Absidia corymbifera 272 after 24 hrs by broth microdilution method; assay type: functional, organism-based; conditions: Lichtheimia corymbifera, 272, 24 h
[25] = tested on: Pseudomonas aeruginosa; assay: Antibacterial activity against Pseudomonas aeruginosa ATCC 9027 after 24 hrs by broth microdilution method; assay type: functional; conditions: ATCC 9027, 24 h
[26] = tested on: HepG2; assay: Cytotoxicity against human HepG2 cells assessed as reduction in cell viability after 48 hrs by MTT assay; assay type: cell-based; conditions: HepG2, 48 h
[27] = tested on: Mycobacterium tuberculosis; assay: Antimycobacterial activity against Mycobacterium tuberculosis CNCTC My 331/88 after 14 days by micromethod; assay type: functional; conditions: CNCTC My 331/88, 336 h
[28] = tested on: Candida tropicalis; assay: Antifungal activity against Candida tropicalis 156 after 24 hrs by broth microdilution method; assay type: functional; conditions: Candida tropicalis, 156, 24 h
[29] = Cytotoxicity against human HepG2 cells assessed as cell viability at 30 uM after 48 hrs by MTT assay; assay type: cell-based; conditions: read-out: Activity
[30] = tested on: Trichophyton mentagrophytes; assay: Antifungal activity against Trichophyton mentagrophytes 445 after 72 hrs by broth microdilution method; assay type: functional, organism-based; conditions: Trichophyton mentagrophytes, 445, 72 h
[31] = Cytotoxicity against human HuH7 cells assessed as reduction in cell viability after 48 hrs by MTT assay; assay type: cell-based; conditions: Huh-7, 48 h
[32] = tested on: Candida tropicalis; assay: Antifungal activity against Candida tropicalis 156 after 48 hrs by broth microdilution method; assay type: functional; conditions: Candida tropicalis, 156, 48 h
[33] = tested on: Aspergillus fumigatus; assay: Antifungal activity against Aspergillus fumigatus 231 after 48 hrs by broth microdilution method; assay type: functional, organism-based; conditions: Aspergillus fumigatus, 231, 48 h
[34] = tested on: Pichia kudriavzevii; assay: Antifungal activity against Candida krusei E28 after 24 hrs by broth microdilution method; assay type: functional; conditions: E28, 24 h
[35] = tested on: Mycobacterium tuberculosis; assay: Antimycobacterial activity against Mycobacterium tuberculosis CNCTC My 331/88 after 21 days by micromethod; assay type: functional; conditions: CNCTC My 331/88, 504 h
[36] = Cytotoxicity against human HeLa cells assessed as cell viability at 30 uM after 48 hrs by MTT assay; assay type: cell-based; conditions: read-out: Activity
[37] = Cytotoxicity against human HuH7 cells assessed as cell viability at 30 uM after 48 hrs by MTT assay; assay type: cell-based, Huh-7; conditions: read-out: Activity
[38] = tested on: Nakaseomyces glabratus; assay: Antifungal activity against Candida glabrata 20/I after 24 hrs by broth microdilution method; assay type: functional
[39] = tested on: Escherichia coli; assay: Antibacterial activity against Escherichia coli ATCC 8739 after 24 hrs by broth microdilution method; assay type: functional; conditions: ATCC 8739, ATCC 8739, 24 h
[40] = tested on: Klebsiella pneumoniae; assay: Antibacterial activity against extended spectrum beta-lactamase producing Klebsiella pneumoniae J 14368/08 after 24 hrs by broth microdilution method; assay type: functional; conditions: J 14368/08, 24 h
[41] = tested on: Mycobacterium avium; assay: Antimycobacterial activity against Mycobacterium avium CNCTC My 330/88 after 14 days by micromethod; assay type: functional; conditions: CNCTC My 330/88, 336 h
[42] = tested on: Staphylococcus epidermidis; assay: Antibacterial activity against Staphylococcus epidermidis H 6966/08 after 48 hrs by broth microdilution method; assay type: functional; conditions: H 6966/08, 48 h
[43] = tested on: Klebsiella pneumoniae; assay: Antibacterial activity against Klebsiella pneumoniae D 11750/08 after 48 hrs by broth microdilution method; assay type: functional; conditions: D 11750/08, 48 h
[44] = tested on: Candida albicans; assay: Antifungal activity against Candida albicans ATCC 44859 after 24 hrs by broth microdilution method; assay type: functional; conditions: ATCC 44859, 24 h
[45] = tested on: Mycobacterium kansasii; assay: Antimycobacterial activity against Mycobacterium kansasii CNCTC My 235/80 after 21 days by micromethod; assay type: functional; conditions: CNCTC My 235/80, 504 h
[46] = tested on: Trichosporon asahii; assay: Antifungal activity against Trichosporon asahii 1188 after 24 hrs by broth microdilution method; assay type: functional; conditions: Trichosporon asahii, 1188, 24 h
[47] = tested on: Enterococcus faecalis; assay: Antibacterial activity against Enterococcus faecalis J 14365/08 after 48 hrs by broth microdilution method; assay type: functional; conditions: J 14365/08, 48 h
[48] = tested on: Trichosporon asahii; assay: Antifungal activity against Trichosporon asahii 1188 after 48 hrs by broth microdilution method; assay type: functional; conditions: Trichosporon asahii, 1188, 48 h
[49] = tested on: Candida albicans; assay: Antifungal activity against Candida albicans ATCC 44859 after 48 hrs by broth microdilution method; assay type: functional; conditions: ATCC 44859, 48 h
[50] = tested on: Klebsiella pneumoniae; assay: Antibacterial activity against Klebsiella pneumoniae D 11750/08 after 24 hrs by broth microdilution method; assay type: functional; conditions: D 11750/08, 24 h

O=[N+]([O-])c1cc(C[Se]c2nnnn2Cc2ccccc2)cc([N+](=O)[O-])c1
MIC [1]: 8 µM (≈ 3.35 µg/mL)
IC50 [2]: > 30 µM
viability at 48 h, 30 µM [3]: 41%
MIC [4]: 4 µM (≈ 1.68 µg/mL)
MIC [5]: 4 µM (≈ 1.68 µg/mL)
MIC [6]: 8 µM (≈ 3.35 µg/mL)
IC95 [7]: > 500 µM
IC95 [8]: > 500 µM
IC95 [9]: > 500 µM
IC50 [10]: 22 µM
IC95 [11]: > 500 µM
MIC [12]: 32 µM (≈ 13.4 µg/mL)
IC50 [13]: > 500 µM
IC95 [14]: > 500 µM
IC80 [15]: > 500 µM
MIC [16]: 2 µM (≈ 0.839 µg/mL)
IC50 [17]: > 500 µM
IC95 [18]: > 500 µM
IC95 [19]: > 500 µM
IC95 [20]: > 500 µM
IC80 [21]: > 500 µM
IC95 [22]: > 500 µM
IC50 [23]: > 500 µM
IC50 [24]: > 500 µM
IC95 [25]: > 500 µM
IC50 [26]: 16.5 µM
MIC [27]: 1 µM (≈ 0.419 µg/mL)
IC80 [28]: > 500 µM
viability at 48 h, 30 µM [29]: 33%
IC50 [30]: > 500 µM
IC50 [31]: > 30 µM
IC80 [32]: > 500 µM
IC50 [33]: > 500 µM
IC80 [34]: > 500 µM
MIC [35]: 2 µM (≈ 0.839 µg/mL)
viability at 48 h, 30 µM [36]: 54%
viability at 48 h, 30 µM [37]: 70%
IC80 [38]: > 500 µM
IC95 [39]: > 500 µM
IC95 [40]: > 500 µM
MIC [41]: 32 µM (≈ 13.4 µg/mL)
IC95 [42]: > 500 µM
IC95 [43]: > 500 µM
IC80 [44]: > 500 µM
MIC [45]: 4 µM (≈ 1.68 µg/mL)
IC80 [46]: > 500 µM
IC95 [47]: > 500 µM
IC80 [48]: > 500 µM
IC80 [49]: > 500 µM
IC95 [50]: > 500 µM

O=[N+]([O-])c1ccc(C[Se]c2nnnn2C2CCCCC2)c([N+](=O)[O-])c1
MIC [1]: 62 µM (≈ 25.5 µg/mL)
IC50 [2]: 29 µM
viability at 48 h, 30 µM [3]: 11%
MIC [4]: 16 µM (≈ 6.58 µg/mL)
MIC [5]: 16 µM (≈ 6.58 µg/mL)
MIC [6]: 62 µM (≈ 25.5 µg/mL)
IC95 [7]: > 500 µM
IC95 [8]: 31.2 µM
IC95 [9]: 15.6 µM
IC50 [10]: < 7.5 µM
IC95 [11]: 15.6 µM
MIC [12]: 32 µM (≈ 13.2 µg/mL)
IC50 [13]: > 500 µM
IC95 [14]: 31.2 µM
IC80 [15]: > 500 µM
MIC [16]: 4 µM (≈ 1.65 µg/mL)
IC50 [17]: 31.2 µM
IC95 [18]: > 500 µM
IC95 [19]: > 500 µM
IC95 [20]: 31.2 µM
IC80 [21]: 62.5 µM
IC95 [22]: 31.2 µM
IC50 [23]: > 500 µM
IC50 [24]: 500 µM
IC95 [25]: > 500 µM
IC50 [26]: 11 µM
MIC [27]: 4 µM (≈ 1.65 µg/mL)
IC80 [28]: > 500 µM
viability at 48 h, 30 µM [29]: 4%
IC50 [30]: 31.2 µM
IC50 [31]: > 30 µM
IC80 [32]: > 500 µM
IC50 [33]: > 500 µM
IC80 [34]: > 500 µM
MIC [35]: 8 µM (≈ 3.29 µg/mL)
viability at 48 h, 30 µM [36]: 32%
viability at 48 h, 30 µM [37]: 49%
IC80 [38]: 62.5 µM
IC95 [39]: > 500 µM
IC95 [40]: > 500 µM
MIC [41]: 32 µM (≈ 13.2 µg/mL)
IC95 [42]: 15.6 µM
IC95 [43]: > 500 µM
IC80 [44]: 15.6 µM
MIC [45]: 16 µM (≈ 6.58 µg/mL)
IC80 [46]: 62.5 µM
IC95 [47]: 15.6 µM
IC80 [48]: 250 µM
IC80 [49]: 15.6 µM
IC95 [50]: > 500 µM
